ChEMBL document CHEMBL1124312, “Perfluoro-N-[4-(1H-tetrazol-5-ylmethyl)phenyl]alkanamides. A new class of oral antidiabetic agents” (J Med Chem, 1989)
“And” between values parts separate entries of the source, which are not always exact repeats. Equal values may be shown once.

Experiments:
Type in all cases: functional, organism-based
[1] = system: Mus musculus; test: Activity of perorally administered compound at a dose of 20 mg/kg for 4 days against plasma glucose in obese mice; set-up: dose 20 mg/kg
[2] = system: Mus musculus; test: Activity of perorally administered compound at a dose of 75 mg/kg for 4 days against plasma glucose in obese mice; set-up: dose 75 mg/kg
[3] = system: Mus musculus; test: Activity of perorally administered compound at a dose of 20 mg/kg for 4 days against plasma insulin in obese mice; set-up: dose 20 mg/kg
[4] = system: Mus musculus; test: Activity of perorally administered compound at a dose of 75 mg/kg for 4 days against plasma insulin in diabetic mice; set-up: dose 75 mg/kg
[5] = system: Mus musculus; test: Activity of perorally administered compound at a dose of 20 mg/kg for 10 days against plasma insulin in diabetic mice; set-up: dose 20 mg/kg
[6] = system: Mus musculus; test: Activity of perorally administered compound at a dose of 75 mg/kg for 4 days against plasma glucose in diabetic mice; set-up: dose 75 mg/kg
[7] = system: Mus musculus; test: Activity of perorally administered compound at a dose of 20 mg/kg for 10 days against plasma glucose in diabetic mice; set-up: dose 20 mg/kg

O=C(Nc1ccc(Cc2nnn[nH]2)cc1)C(F)(F)F
Plasma glucose [1]: 273 mg/dL | Plasma glucose [2]: 138 mg/dL

O=C(Nc1ccc(Cc2nnn[nH]2)cc1)C(F)(F)C(F)(F)F
Plasma glucose [1]: 198 mg/dL | Plasma glucose [2]: 120 mg/dL

O=C(Nc1ccc(Cc2nnn[nH]2)cc1)C(F)(F)C(F)(F)C(F)(F)C(F)(F)C(F)(F)C(F)(F)F
Plasma glucose [1]: 231 mg/dL | Plasma glucose [2]: 162 mg/dL

O=C(Nc1ccc(Cc2nnnn2Cc2ccccc2)cc1)C(F)(F)C(F)(F)C(F)(F)C(F)(F)C(F)(F)C(F)(F)C(F)(F)F
Plasma glucose [1]: 152 mg/dL | Plasma insulin [3]: 249 µU/mL

O=C(Nc1ccc(Cc2nnn[nH]2)cc1)C(F)(F)C(F)(F)C(F)(F)C(F)(F)C(F)(F)C(F)(F)C(F)(F)C(F)(F)F
Plasma glucose [1]: 128 mg/dL | Plasma glucose [2]: 106 mg/dL

O=C(Nc1ccc(Cc2nn[nH]n2)cc1)C(F)(F)C(F)(F)C(F)(F)C(F)(F)C(F)(F)C(F)(F)C(F)(F)F
Plasma insulin [4]: 32 µU/mL | Plasma insulin [5]: 14 µU/mL | Plasma glucose [6]: 163 mg/dL | Plasma glucose [1]: 111 mg/dL and 119 mg/dL | Plasma glucose [7]: 256 mg/dL | Plasma glucose [2]: 87 mg/dL | Plasma insulin [3]: 140 µU/mL

O=C(Nc1ccc(Cc2nnn[nH]2)cc1)C(F)(F)C(F)(F)C(F)(F)C(F)(F)C(F)(F)C(F)(F)C(F)(F)C(F)(F)C(F)(F)C(F)F
Plasma glucose [1]: 123 mg/dL | Plasma glucose [2]: 118 mg/dL

CN(C(=O)C(F)(F)C(F)(F)C(F)(F)C(F)(F)C(F)(F)C(F)(F)C(F)(F)F)c1ccc(Cc2nnn(C)n2)cc1
Plasma glucose [1]: 128 mg/dL | Plasma insulin [3]: 205 µU/mL

O=C(Nc1ccc(Cc2nnn(Cc3ccccc3)n2)cc1)C(F)(F)C(F)(F)C(F)(F)C(F)(F)C(F)(F)C(F)(F)C(F)(F)F
Plasma glucose [1]: 119 mg/dL | Plasma insulin [3]: 204 µU/mL

O=C(Nc1ccc(Cc2nnn[nH]2)cc1)C(F)(F)C(F)(F)C(F)(F)C(F)(F)C(F)(F)C(F)(F)C(F)(F)C(F)(F)C(F)(F)F
Plasma glucose [1]: 133 mg/dL | Plasma glucose [2]: 144 mg/dL

O=C(Nc1ccc(Cc2nnn[nH]2)cc1)C(F)(F)C(F)(F)C(F)(F)C(F)(F)F
Plasma glucose [1]: 207 mg/dL | Plasma glucose [2]: 170 mg/dL

O=C(Nc1ccc(Cc2nnn[nH]2)cc1)C(F)(F)C(F)(F)C(F)(F)C(F)(F)C(F)(F)C(F)(F)C(F)(F)C(F)F
Plasma insulin [4]: 34 µU/mL | Plasma glucose [6]: 124 mg/dL | Plasma glucose [1]: 108 mg/dL | Plasma glucose [2]: 93 mg/dL

CC1(COc2ccc(CC3SC(=O)NC3=O)cc2)CCCCC1 (stereo not drawn)
Plasma insulin [4]: 25 µU/mL | Plasma insulin [5]: 20 µU/mL | Plasma glucose [6]: 348 mg/dL | Plasma glucose [1]: 191 mg/dL | Plasma glucose [7]: 320 mg/dL | Plasma glucose [2]: 107 mg/dL

CN(C(=O)C(F)(F)C(F)(F)C(F)(F)C(F)(F)C(F)(F)C(F)(F)C(F)(F)F)c1ccc(Cc2nnnn2C)cc1
Plasma glucose [1]: 119 mg/dL | Plasma insulin [3]: 204 µU/mL

O=C(Nc1ccc(Cc2nn[nH]n2)cc1)C(F)(F)C(F)(F)C(F)(F)F
Plasma insulin [5]: 19 µU/mL | Plasma glucose [1]: 213 mg/dL | Plasma glucose [7]: 307 mg/dL | Plasma glucose [2]: 100 mg/dL
